Where “and” joins values, the source holds several entries; their conditions need not be identical. Identical values can stand only once.
Experiments:
Cytochrome P450 1A2 = target: T1, Cytochrome P450 1A2 (Homo sapiens, UniProt P05177);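 further: PubChem cytochrome P450 panel assay, CYP1A2 panel member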
T1 sequence (P05177 whole entry): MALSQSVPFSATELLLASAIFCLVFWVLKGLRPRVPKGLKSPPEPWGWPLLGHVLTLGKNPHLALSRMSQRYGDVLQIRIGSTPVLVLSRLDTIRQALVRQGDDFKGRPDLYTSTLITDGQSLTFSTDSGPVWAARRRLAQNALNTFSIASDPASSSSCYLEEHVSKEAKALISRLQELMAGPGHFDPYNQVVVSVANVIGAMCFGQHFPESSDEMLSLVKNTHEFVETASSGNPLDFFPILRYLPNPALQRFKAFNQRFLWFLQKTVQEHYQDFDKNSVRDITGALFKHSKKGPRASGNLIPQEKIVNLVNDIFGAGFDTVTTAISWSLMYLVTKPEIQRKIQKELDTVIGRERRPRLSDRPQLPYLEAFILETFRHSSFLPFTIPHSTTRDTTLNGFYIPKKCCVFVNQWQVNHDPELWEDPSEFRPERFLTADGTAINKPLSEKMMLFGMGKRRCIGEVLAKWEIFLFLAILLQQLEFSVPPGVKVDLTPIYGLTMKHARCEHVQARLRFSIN

[1] = target: T2, Heat shock factor protein 1 (Mus musculus, UniProt P38532); experiment: decrease of HSF1-responsive luciferase luminescence – cell-based, NIH3T3, dose retest, confirmation (AID 2382); format: functional;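 further: NIH3T3 fibroblasts with HSF1-driven luciferase reporter stressed by proteasome inhibitor MG132; luminescence from HSF1-driven luciferase expression after 8 hours of MG132 stress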
T2 sequence (P38532 whole entry): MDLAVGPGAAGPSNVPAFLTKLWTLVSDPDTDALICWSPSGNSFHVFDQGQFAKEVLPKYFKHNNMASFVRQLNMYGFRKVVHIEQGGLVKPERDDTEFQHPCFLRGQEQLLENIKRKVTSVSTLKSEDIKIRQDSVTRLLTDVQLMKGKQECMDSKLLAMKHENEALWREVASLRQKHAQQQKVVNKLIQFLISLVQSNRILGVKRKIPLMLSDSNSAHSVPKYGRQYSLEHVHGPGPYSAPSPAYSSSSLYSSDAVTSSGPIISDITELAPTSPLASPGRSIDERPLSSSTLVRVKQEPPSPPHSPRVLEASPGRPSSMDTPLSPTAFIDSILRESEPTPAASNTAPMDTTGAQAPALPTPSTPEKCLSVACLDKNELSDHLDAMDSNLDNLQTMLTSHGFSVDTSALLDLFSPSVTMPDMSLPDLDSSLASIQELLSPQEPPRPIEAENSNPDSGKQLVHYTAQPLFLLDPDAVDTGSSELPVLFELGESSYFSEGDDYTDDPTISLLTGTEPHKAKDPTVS

Cytochrome P450 3A4 = Cytochrome P450 3A4 (Homo sapiens, UniProt P08684);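 further: CYP3A4 tested as one member of a cytochrome P450 panel screen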
Chain of Cytochrome P450 3A4 (P08684 whole entry): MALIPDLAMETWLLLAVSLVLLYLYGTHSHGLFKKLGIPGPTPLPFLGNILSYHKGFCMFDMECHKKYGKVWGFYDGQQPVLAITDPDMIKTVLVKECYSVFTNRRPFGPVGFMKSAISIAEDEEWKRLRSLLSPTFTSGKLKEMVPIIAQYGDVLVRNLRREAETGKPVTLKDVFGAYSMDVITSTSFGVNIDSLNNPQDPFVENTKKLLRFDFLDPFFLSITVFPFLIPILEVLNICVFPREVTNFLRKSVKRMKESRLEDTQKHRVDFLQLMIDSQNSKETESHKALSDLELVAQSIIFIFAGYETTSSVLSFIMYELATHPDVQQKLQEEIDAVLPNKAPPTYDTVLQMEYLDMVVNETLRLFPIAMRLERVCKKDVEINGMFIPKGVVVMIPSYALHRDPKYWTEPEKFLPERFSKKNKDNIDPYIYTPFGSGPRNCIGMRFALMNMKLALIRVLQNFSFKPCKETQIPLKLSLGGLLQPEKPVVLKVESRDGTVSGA

Cytochrome P450 2D6 = Cytochrome P450 2D6 (Homo sapiens, UniProt P10635);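 further: CYP2D6 member of a cytochrome P450 panel assay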
Chain of Cytochrome P450 2D6 (P10635 whole entry): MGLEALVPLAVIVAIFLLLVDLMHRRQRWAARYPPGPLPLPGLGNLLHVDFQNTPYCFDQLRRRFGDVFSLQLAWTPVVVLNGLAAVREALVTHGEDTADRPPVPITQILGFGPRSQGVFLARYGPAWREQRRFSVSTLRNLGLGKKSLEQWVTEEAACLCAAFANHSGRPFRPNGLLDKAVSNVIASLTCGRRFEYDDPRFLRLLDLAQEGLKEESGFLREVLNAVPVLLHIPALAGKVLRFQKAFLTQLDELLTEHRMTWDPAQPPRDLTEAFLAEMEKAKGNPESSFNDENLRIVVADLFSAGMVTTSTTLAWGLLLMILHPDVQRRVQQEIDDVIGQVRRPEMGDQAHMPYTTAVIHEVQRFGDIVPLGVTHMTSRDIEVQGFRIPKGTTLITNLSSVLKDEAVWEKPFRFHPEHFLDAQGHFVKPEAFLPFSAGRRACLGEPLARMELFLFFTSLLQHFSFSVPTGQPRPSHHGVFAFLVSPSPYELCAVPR

Cytochrome P450 2C19 = Cytochrome P450 2C19 (Homo sapiens, UniProt P33261); experiment: Cytochrome panel assay with activity outcomes. Panel member name: p450-cyp2c19 Compounds with AC50 equal or less than 10 uM are considered active; format: functional
Chain of Cytochrome P450 2C19 (P33261 whole entry): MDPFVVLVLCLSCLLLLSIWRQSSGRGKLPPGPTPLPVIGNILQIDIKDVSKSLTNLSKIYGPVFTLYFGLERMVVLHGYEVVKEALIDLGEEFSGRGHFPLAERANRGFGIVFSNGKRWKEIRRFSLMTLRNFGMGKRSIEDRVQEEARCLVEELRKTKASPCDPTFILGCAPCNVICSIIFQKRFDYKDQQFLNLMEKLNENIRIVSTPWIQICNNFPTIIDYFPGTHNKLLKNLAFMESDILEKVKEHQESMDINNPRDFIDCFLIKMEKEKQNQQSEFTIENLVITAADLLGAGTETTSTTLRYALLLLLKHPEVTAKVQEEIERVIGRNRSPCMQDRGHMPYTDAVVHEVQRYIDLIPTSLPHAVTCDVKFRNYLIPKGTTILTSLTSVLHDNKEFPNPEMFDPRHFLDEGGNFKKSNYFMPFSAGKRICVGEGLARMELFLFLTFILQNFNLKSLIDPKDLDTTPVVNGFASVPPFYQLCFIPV

Cytochrome P450 2C9 = Cytochrome P450 2C9 (Homo sapiens, UniProt P11712)
Chain of Cytochrome P450 2C9 (P11712 whole entry): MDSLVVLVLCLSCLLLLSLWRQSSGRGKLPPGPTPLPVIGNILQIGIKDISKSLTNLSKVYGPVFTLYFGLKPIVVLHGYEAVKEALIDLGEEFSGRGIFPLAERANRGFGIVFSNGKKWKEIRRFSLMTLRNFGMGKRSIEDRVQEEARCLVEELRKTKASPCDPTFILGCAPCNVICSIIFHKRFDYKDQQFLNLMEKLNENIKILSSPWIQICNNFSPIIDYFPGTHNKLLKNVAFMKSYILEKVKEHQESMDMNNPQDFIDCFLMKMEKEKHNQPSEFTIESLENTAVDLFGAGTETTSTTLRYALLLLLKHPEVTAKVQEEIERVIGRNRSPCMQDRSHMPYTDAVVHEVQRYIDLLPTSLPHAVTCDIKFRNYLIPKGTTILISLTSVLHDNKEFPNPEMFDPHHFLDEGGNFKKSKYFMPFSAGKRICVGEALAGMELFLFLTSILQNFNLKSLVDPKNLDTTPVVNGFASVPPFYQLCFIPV

CCCN[C@@H](C)C(=O)Nc1c(C)csc1C(=O)OC
AC50 (Cytochrome P450 1A2): 12.6 µM (inconclusive)

O=C1CC(N2CCCCC2)C(=O)N1c1ccccc1 (configuration not stated)
EC50 [1]: > 195 µM (not active)

CCC(c1nnnn1CCOC)N1CCN(C(=O)c2ccco2)CC1 (configuration not stated)
AC50 (Cytochrome P450 3A4): 28.2 µM (inconclusive)

CO[C@H]1COC(=O)[C@@H](C)COC(=O)[C@@H](COCc2ccccc2)NC(=O)C/C=C\[C@H]1C
AC50 (Cytochrome P450 3A4): 3.98 µM (inconclusive)

CC(C)n1nnnc1SCC(=O)NCCc1ccccc1
AC50 (Cytochrome P450 2D6): 25.1 µM (inconclusive)

NCCC(=O)NCCc1c[nH]cn1 [CARCININE]
AC50 (Cytochrome P450 2D6): 31.6 µM (inconclusive) and 10 µM (inconclusive) | AC50 (Cytochrome P450 2C19): inconclusive

c1cc(CN2CC3(CCNCC3)C2)ccn1
AC50 (Cytochrome P450 2D6): 39.8 µM (inconclusive)

O=C(c1cnccn1)N1CCC2(CCCN(C(c3ccccc3)c3ccccc3)C2)CC1
AC50 (Cytochrome P450 2C19; read-out: AC50): 25.1 µM (inconclusive) | AC50 (Cytochrome P450 1A2): 20 µM (inconclusive)

O=C(CNS(=O)(=O)c1ccc(Br)s1)N1CCC(N2CCCCC2)CC1
AC50 (Cytochrome P450 2C19; read-out: AC50): 20 µM (inconclusive)

O=[N+]([O-])c1ccc(NN=C2c3ccccc3Cc3ccccc32)c([N+](=O)[O-])c1
AC50 (Cytochrome P450 1A2): 0.794 µM (inconclusive)

CC(=O)c1c(O)cc(=O)n(-c2ccccc2)c1-c1ccc(C)cc1
AC50 (Cytochrome P450 2D6): 0.00501 µM (inconclusive) | AC50 (Cytochrome P450 2C9): 15.8 µM (inconclusive)

O=C(NNC(=O)c1cccnc1)Nc1cccc2ccccc12
AC50 (Cytochrome P450 2C19; read-out: AC50): 28.2 µM (inconclusive) | AC50 (Cytochrome P450 1A2): 14.1 µM (inconclusive)

NC(=O)COc1c(F)cc(SCCNS(=O)(=O)c2ccccc2)cc1F
AC50 (Cytochrome P450 2C9): 31.6 µM (inconclusive) | AC50 (Cytochrome P450 1A2): 31.6 µM (inconclusive)

CCOC(=O)C1CCCN(CCC(=O)Nc2cc(OC)ccc2OC)C1 (configuration not stated)
EC50 [1]: > 195 µM (not active)

NC(=S)N/N=C1\CC(n2nnnc2-c2ccccc2Cl)C2COC1O2 (configuration not stated)
EC50 [1]: > 195 µM (not active)

CN=C(S)N(CCc1c(C)[nH]c2ccc(F)cc12)Cc1cccnc1
EC50 [1]: > 195 µM (not active)

CCC(C)NCc1ccc(C(=O)OC)o1 (configuration not stated)
AC50 (Cytochrome P450 2D6): 14.1 µM (inconclusive) | AC50 (Cytochrome P450 2C9): 0.447 µM (inconclusive) | AC50 (Cytochrome P450 2C19; read-out: AC50): 15.8 µM (inconclusive)

CCOC(=O)c1cc(C(=O)OCC)cc(-n2cc(O)c(C(=O)OCC)n2)c1
AC50 (Cytochrome P450 2D6): 3.16 µM (inconclusive)

Cc1ccccc1NS(=O)(=O)c1cc(C(=O)Nc2cccc(N(C)S(C)(=O)=O)c2)ccc1C
AC50 (Cytochrome P450 2D6): 17.8 µM (inconclusive) | AC50 (Cytochrome P450 1A2): 17.8 µM (inconclusive)

CCOC(=O)c1ccc(Oc2nc(NC)nc(Nc3ccccc3)n2)cc1
EC50 [1]: > 195 µM (not active)

CNC(=O)COC(=O)c1cc2c(C)nn(-c3ccc(F)cc3)c2s1
AC50 (Cytochrome P450 2C9): 1.12 µM (inconclusive) | AC50 (Cytochrome P450 2C19; read-out: AC50): 39.8 µM (inconclusive)

COc1ccc(Br)cc1CN1CCN(CCO)CC1
EC50 [1]: > 195 µM (not active)

O=C(NCCc1c[nH]c2ccccc12)[C@H]1C[C@@H]1[C@H](NP(=O)(c1ccccc1)c1ccccc1)c1ccccc1
AC50 (Cytochrome P450 1A2): 12.6 µM (inconclusive)

CS(=O)(=O)Nc1cccc(-c2cncnc2Nc2ccc(F)cc2)c1
AC50 (Cytochrome P450 2D6): 20 µM (inconclusive)

CNc1nc(-c2ccccc2C(F)(F)F)nc2ccccc12
AC50 (Cytochrome P450 2D6): 20 µM (inconclusive) | AC50 (Cytochrome P450 2C19; read-out: AC50): 31.6 µM (inconclusive)

CCCCC1C(=O)NC(=S)NC1=O
EC50 [1]: > 195 µM (not active)

COc1cccc(C(c2sc3nc(C)nn3c2O)N2CCN(C(=O)c3ccco3)CC2)c1 (configuration not stated)
EC50 [1]: > 195 µM (not active)

COc1cc([N+](=O)[O-])ccc1NC(=O)CCCOc1cccc(C)c1
AC50 (Cytochrome P450 2D6): 15.8 µM (inconclusive)

Cc1nnc(NC(=O)CCC(=O)NCc2cccs2)s1
AC50 (Cytochrome P450 2C9): 31.6 µM (inconclusive) | AC50 (Cytochrome P450 2C19; read-out: AC50): 22.4 µM (inconclusive)

CCOC(=O)c1sc(NC(=O)CSc2nnc(-c3ccccc3)[nH]2)c(C#N)c1C
EC50 [1]: > 195 µM (not active)

CCN=C(Nc1cccc(F)c1)SC1CC(=O)N(c2ccc(OC)cc2)C1=O (configuration not stated)
AC50 (Cytochrome P450 2D6): 14.1 µM (inconclusive)
